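Five concentrations, 48 hours, 96-well plates. TGI: concentration producing complete growth inhibition.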
Experiments:
Assay in all cases: NCI-60 cell line screen, 48 h
[1] = tested on: DMS 273 small cell lung
[2] = tested on: HOP-18 NSCLC
[3] = tested on: KM20L2 colon
[4] = tested on: RXF-631 renal
[5] = tested on: SNB-78 CNS
[6] = tested on: DMS 114 small cell lung
[7] = tested on: LXFL 529 NSCLC
[8] = tested on: XF 498 CNS

Structure (SMILES) | TGI [1] | TGI [2] | TGI [3] | TGI [4] | TGI [5] | TGI [6] | TGI [7] | TGI [8]
Cc1nc(-n2nc(-c3ccccc3)cc2-c2ccccc2)sc1C(=O)/C=C/c1ccccc1 | > 100 µM | > 100 µM | > 100 µM | > 100 µM | > 100 µM | – | – | –
N#CC(NNC(=O)c1ccccc1O)c1c(O)ccc2ccccc12 (stereo not drawn) | 14.2 µM | 8.2 µM | 68 µM | – | > 100 µM | 5.14 µM | 33.4 µM | –
COC(=O)CC1CC2(C(=O)OC)c3[nH]c4ccccc4c3CCN2C1=O (stereo not drawn) | > 100 µM | > 100 µM | > 100 µM | 31.3 µM | > 100 µM | > 100 µM | > 100 µM | > 100 µM
O=c1[nH]c2ccc([N+](=O)[O-])cc2nc1/C(=N/Nc1ccccc1)C(O)c1ccco1 (stereo not drawn) | > 100 µM | – | > 100 µM | – | > 100 µM | > 100 µM | > 100 µM | > 100 µM
O=CC1=CCC2c3[nH]c4ccccc4c3CCN2C1 (stereo not drawn) | 212 µM | > 396 µM | > 396 µM | – | – | 266 µM | 137 µM | 213 µM
CC1=CCN(c2ccccn2)OC1c1ccccc1 (stereo not drawn) | > 100 µM | > 100 µM | > 100 µM | > 100 µM | > 100 µM | > 100 µM | > 100 µM | > 100 µM
O=C1CNN=C(Cn2nc(-c3ccccc3)c3ccccc3c2=O)N1 | > 100 µM | > 100 µM | – | – | > 100 µM | > 100 µM | > 100 µM | –
COc1ccc(-c2cc(-c3ccco3)c(C#N)c(=O)[nH]2)cc1 | > 100 µM | 74.8 µM | > 100 µM | > 100 µM | > 100 µM | > 100 µM | > 100 µM | –
O=C(/C(=C/c1ccc(O)cc1)c1ccccc1)c1ccccc1 | – | 33.4 µM | – | 29.3 µM | 70.9 µM | 24.4 µM | 35.7 µM | –
CCCCCCCCCCCCCCCC(=O)OCC1OC(n2cc(F)c(=O)[nH]c2=O)C(NC(=O)N(CCCl)N=O)C(O)C1O (stereo not drawn) | 4.3 µM | 33.3 µM | 18.4 µM | 17.9 µM | 18.1 µM | 5.02 µM | 15.8 µM | –
Cn1c(NC(=O)NC23CC4CC(CC(C4)C2)C3)nc2ccccc21 | > 100 µM | > 100 µM | > 100 µM | – | 97 µM | – | > 100 µM | –

Reference: PubChem BioAssay (NCI)
